Target: T1, PD brain-derived a-synuclein aggregates (Homo sapiens, UniProt P37840)
T1 construct: from tissue; host or cells: frozen brain tissue of PD donors, 1% sarkosyl-insoluble pellet
Assay: Micro-radiobinding competition assay against a-syn reference on PD brain-derived insoluble fraction
Assay type: binding
Details: against [3H]-reference a-syn compound
Protocol: The procedure was adapted from the protocol described in Spillantini et al., 1998. Frozen tissue blocks from PD donors were thawed on ice and homogenized using a glass dounce homogenizer. The homogenate was then centrifuged at 11,000×g (12,700 RPM) in an ultracentrifuge (Beckman, XL100K) for 20 minutes at 4° C. using a pre-cooled 70.1 rotor (Beckman, 342184). Pellets were resuspended in extraction buffer [10 mM Tris-HCl pH 7.4, 10% sucrose, […], 1% protease inhibitor (Calbiochem 539131), 1 mM EGTA, 1% phosphatase inhibitor (Sigma P5726 and P0044)] and centrifuged at 15,000×g (14,800 RPM, a 70.1 Ti rotor) for 20 minutes at 4° C. […]
PD brain-derived a-synuclein aggregates and AD brain-derived Tau PHF aggregates were spotted onto microarray slides. […] Quantification of signal was performed by using the image analysis software Beamage (ai4R). Non-specific signal was determined with an excess of non-radiolabelled compound (2 μM) and specific binding was calculated by subtracting the non-specific signal from the total signal. Competition was calculated as percentage, where 0% was defined as the specific binding in the presence of vehicle and 100% as the values obtained in the presence of excess of the non-radiolabelled a-syn reference compound. Ki values were calculated in GraphPad Prism7 by applying a nonlinear regression curve fit using a one site, specific binding model. […]

SMILES: O=C1c2sc(-c3ccc(N4CC[C@@H](F)C4)nc3F)nc2CCN1c1cccnc1 [Compound 1, 2-[2-fluoro-6-[(3R)-3-fluoropyrrolidin-1-yl]-3-pyridyl]-5-(3-pyridyl)-6,7-dihydrothiazolo[5,4-c]pyridin-4-one]
- Ki: > 500 nM
